# Reference: article PMC6264176, “Cholesterol-Lowering Activity of the Major Polyphenols in Grape Seed” (Molecules, 2011)
# Target: T1, pancreatic cholesterol esterase (Sus scrofa, UniProt A0A286ZKB1)
# T1 construct: gene CEL
# T1 sequence (A0A286ZKB1 96-682): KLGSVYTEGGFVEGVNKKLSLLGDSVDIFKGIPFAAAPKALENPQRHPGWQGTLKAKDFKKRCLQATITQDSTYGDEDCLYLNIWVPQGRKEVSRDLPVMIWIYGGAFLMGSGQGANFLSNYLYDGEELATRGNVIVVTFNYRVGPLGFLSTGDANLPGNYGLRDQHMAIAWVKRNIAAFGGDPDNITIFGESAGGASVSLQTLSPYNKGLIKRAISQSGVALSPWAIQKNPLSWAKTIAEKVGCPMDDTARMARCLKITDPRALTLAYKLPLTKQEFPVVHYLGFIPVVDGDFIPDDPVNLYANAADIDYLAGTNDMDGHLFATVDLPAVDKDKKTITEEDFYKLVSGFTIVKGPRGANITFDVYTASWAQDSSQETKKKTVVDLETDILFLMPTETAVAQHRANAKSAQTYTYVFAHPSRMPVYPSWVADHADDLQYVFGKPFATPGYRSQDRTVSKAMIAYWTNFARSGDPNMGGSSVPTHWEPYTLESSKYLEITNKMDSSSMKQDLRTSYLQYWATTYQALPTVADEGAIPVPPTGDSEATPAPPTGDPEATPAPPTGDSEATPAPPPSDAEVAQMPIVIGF
# Experiment: p-NPB hydrolysis by porcine pancreatic cholesterol esterase, absorbance at […] nm, with taurocholic acid
# Assay type: biochemical
row,Compound,IC50 [µM]
1,"Oc1cc(O)c2c(c1)OC(c1ccc(O)c(O)c1)C(O)C2 (single isomer, unassigned; (+)) [(+)-Catechin]",> 345
2,Oc1cc(O)c2c(c1)O[C@H](c1ccc(O)c(O)c1)[C@H](O)C2 [(–)-epicatechin],> 345
3,O=C(O)c1cc(O)c(O)c(O)c1 [gallic acid],> 588
